Measurements published in ChEMBL document CHEMBL1127470, “Analogues of the marine immunosuppressant microcolin A: preparation and biological activity” (J Med Chem, 1994).

Key:
Homo sapiens = organism: Homo sapiens; experiment: The compound was tested for inhibition of human splenocyte proliferation by [3H]thymidine incorporation; format: functional, organism-based
Mus musculus = organism: Mus musculus; experiment: The compound was tested for inhibition of murine splenocyte proliferation by [3H]thymidine incorporation; format: functional, organism-based

| Compound | EC50 (Homo sapiens) [nM] | EC50 (Mus musculus) [nM] |
| --- | --- | --- |
| CCCCC(C)CC(C)C(=O)N(C)[C@@H](CC(C)C)C(=O)N[C@H](C(=O)N(C)[C@H](C(=O)N1C[C@@H](O)C[C@H]1C(=O)N1C(=O)C=CC1C)C(C)C)C(C)OC(C)=O (some centres not stated) | 0.02 | 0.02 |
| CCCCC(C)CC(C)C(=O)N(C)[C@@H](CC(C)C)C(=O)N[C@H](C(=O)N(C)[C@H](C(=O)N1CCC[C@H]1C(=O)N1C(=O)CCC1C)C(C)C)C(C)OC(C)=O (some centres not stated) | 341 | > 668 |
| CCCCC(C)CC(C)C(=O)N(C)[C@@H](CC(C)C)C(=O)N[C@H](C(=O)N(C)[C@H](C(=O)N1C[C@@H](O)C[C@H]1C(=O)N1C(=O)C=CC1C)C(C)C)C(C)O (some centres not stated) | 0.04 | 0.006 |
| CCCCC(C)CC(C)C(=O)N(C)[C@@H](CC(C)C)C(=O)N[C@H](C(=O)N(C)[C@H](C(=O)OC)C(C)C)C(C)OO (some centres not stated) | 380 | 380 |
| CCCCC(C)CC(C)C(=O)N(C)[C@@H](CC(C)C)C(=O)N[C@H](C(=O)N(C)[C@H](C(=O)N1C[C@@H](O)C[C@H]1C(=O)N1C(=O)CCC1C)C(C)C)C(C)OC(C)=O (some centres not stated) | > 668 | > 668 |
| CCCCC(C)CC(C)C(=O)N(C)[C@@H](CC(C)C)C(=O)N[C@@H]1C(=O)N(C)[C@@H](C(C)C)C(=O)O[C@@H]1C (some centres not stated) | 8.1 | 10 |
| CCCCC(C)CC(C)C(=O)N(C)[C@@H](CC(C)C)C(=O)N[C@H](C(=O)N(C)[C@H](C(=O)N1CCC[C@H]1C(=O)N1C(=O)C=CC1C)C(C)C)C(C)OC(C)=O (some centres not stated) | 4.1 | 20.5 |
| CCCCC(C)CC(C)C(=O)N(C)[C@@H](CC(C)C)C(=O)N[C@H](C(=O)N(C)[C@H](C(=O)N1C[C@@H](OC(C)=O)C[C@H]1C(=O)N1C(=O)C=CC1C)C(C)C)C(C)OC(C)=O (some centres not stated) | 10.2 | 19 |
| CC1C=CC(=O)N1C(=O)[C@@H]1C[C@H](O)CN1 (some centres not stated) | > 2400 | > 2400 |
| CCCCC(C)CC(C)C(=O)N(C)[C@@H](CC(C)C)C(=O)N[C@H](C(=O)N(C)[C@H](C(=O)N1C[C@@H](O)C[C@H]1C(=O)OC)C(C)C)[C@@H](C)O (some centres not stated) | > 781 | > 781 |
| CCCCC(C)CC(C)C(=O)N(C)[C@@H](CC(C)C)C(=O)N[C@H](C(=O)N(C)[C@H](C(=O)N1CC(=O)C[C@H]1C(=O)N1C(=O)C=CC1C)C(C)C)C(C)OC(C)=O (single isomer, unassigned) | 5.4 | 5.4 |
